{"source": "ChEMBL document CHEMBL5131445", "about": "“Optimization of a novel piperazinone series as potent selective peripheral covalent BTK inhibitors” (Bioorg Med Chem Lett, 2022)", "key": {"[1]": {"biological_target": "Receptor tyrosine-protein kinase erbB-2 (Homo sapiens, UniProt P04626)", "sequence (P04626 whole entry)": "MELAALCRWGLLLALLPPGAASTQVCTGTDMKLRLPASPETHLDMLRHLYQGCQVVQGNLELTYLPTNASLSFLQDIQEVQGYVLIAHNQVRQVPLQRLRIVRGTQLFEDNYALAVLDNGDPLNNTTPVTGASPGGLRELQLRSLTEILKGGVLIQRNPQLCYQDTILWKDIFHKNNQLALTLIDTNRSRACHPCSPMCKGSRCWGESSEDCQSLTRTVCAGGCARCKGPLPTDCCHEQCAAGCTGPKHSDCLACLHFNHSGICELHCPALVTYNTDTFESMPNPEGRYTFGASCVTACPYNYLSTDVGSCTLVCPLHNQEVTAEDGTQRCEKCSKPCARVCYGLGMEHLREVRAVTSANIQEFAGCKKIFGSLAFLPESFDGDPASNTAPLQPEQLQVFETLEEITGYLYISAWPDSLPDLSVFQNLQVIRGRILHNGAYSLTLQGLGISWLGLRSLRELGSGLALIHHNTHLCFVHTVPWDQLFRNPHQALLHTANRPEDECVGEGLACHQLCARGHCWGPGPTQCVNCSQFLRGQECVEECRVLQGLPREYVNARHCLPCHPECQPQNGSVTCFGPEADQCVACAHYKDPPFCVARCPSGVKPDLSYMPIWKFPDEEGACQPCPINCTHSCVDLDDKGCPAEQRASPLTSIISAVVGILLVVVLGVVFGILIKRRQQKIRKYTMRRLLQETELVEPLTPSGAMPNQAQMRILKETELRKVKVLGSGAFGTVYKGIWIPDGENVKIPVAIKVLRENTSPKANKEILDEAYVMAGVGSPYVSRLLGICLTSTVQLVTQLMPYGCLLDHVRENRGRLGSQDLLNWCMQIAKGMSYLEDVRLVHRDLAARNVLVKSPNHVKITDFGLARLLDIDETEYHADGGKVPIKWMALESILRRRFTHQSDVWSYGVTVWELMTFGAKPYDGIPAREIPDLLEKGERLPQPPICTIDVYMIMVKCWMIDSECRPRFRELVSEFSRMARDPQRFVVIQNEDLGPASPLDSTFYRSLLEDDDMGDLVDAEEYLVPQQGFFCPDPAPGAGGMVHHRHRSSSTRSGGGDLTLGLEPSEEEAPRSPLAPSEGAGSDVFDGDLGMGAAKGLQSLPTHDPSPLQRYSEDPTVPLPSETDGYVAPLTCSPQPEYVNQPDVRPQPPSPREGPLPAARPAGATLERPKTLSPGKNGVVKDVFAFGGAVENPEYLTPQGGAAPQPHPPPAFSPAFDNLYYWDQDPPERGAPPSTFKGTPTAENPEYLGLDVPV", "test": "Binding affinity to ERBB2 (unknown origin) assessed as dissociation constant by KINOMEscan analysis"}, "[2]": {"biological_target": "Receptor tyrosine-protein kinase erbB-4 (Homo sapiens, UniProt Q15303)", "sequence (Q15303 whole entry)": "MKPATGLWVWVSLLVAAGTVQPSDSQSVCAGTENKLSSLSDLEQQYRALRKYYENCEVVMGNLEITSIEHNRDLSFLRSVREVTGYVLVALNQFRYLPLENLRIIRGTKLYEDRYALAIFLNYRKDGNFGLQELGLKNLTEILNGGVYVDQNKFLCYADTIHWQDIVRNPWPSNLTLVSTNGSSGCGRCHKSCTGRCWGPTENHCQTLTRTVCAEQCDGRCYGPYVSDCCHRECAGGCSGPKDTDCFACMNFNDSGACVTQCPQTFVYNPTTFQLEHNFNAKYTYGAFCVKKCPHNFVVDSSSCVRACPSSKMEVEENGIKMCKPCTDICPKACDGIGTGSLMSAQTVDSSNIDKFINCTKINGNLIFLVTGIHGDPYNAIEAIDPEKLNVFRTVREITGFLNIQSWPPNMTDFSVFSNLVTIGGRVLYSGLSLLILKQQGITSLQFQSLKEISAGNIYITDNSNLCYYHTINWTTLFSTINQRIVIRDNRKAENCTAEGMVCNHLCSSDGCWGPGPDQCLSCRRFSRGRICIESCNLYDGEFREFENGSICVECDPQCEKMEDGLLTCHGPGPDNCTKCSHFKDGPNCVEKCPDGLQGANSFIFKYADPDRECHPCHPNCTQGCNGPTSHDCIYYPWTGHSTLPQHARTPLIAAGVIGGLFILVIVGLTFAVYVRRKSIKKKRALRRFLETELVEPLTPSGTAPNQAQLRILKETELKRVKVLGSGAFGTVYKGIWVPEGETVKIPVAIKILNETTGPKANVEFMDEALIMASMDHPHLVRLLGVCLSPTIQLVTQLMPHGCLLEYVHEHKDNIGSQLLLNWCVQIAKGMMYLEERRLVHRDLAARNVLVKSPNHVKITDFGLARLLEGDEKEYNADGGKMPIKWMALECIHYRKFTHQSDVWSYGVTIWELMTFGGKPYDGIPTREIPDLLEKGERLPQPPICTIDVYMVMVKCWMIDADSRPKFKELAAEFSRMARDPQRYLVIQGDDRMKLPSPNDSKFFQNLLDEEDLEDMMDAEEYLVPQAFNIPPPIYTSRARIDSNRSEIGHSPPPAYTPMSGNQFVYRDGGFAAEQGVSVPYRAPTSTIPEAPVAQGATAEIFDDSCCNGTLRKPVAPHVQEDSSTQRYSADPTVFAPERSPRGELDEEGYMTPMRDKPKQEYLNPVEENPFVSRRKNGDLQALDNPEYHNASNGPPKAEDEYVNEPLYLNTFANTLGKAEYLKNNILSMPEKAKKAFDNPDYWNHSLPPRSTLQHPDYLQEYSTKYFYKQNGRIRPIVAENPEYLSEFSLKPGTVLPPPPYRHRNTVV", "test": "Binding affinity to ERBB4 (unknown origin) assessed as dissociation constant by KINOMEscan analysis"}, "[3]": {"biological_target": "Tyrosine-protein kinase Blk (Homo sapiens, UniProt P51451)", "sequence (P51451 whole entry)": "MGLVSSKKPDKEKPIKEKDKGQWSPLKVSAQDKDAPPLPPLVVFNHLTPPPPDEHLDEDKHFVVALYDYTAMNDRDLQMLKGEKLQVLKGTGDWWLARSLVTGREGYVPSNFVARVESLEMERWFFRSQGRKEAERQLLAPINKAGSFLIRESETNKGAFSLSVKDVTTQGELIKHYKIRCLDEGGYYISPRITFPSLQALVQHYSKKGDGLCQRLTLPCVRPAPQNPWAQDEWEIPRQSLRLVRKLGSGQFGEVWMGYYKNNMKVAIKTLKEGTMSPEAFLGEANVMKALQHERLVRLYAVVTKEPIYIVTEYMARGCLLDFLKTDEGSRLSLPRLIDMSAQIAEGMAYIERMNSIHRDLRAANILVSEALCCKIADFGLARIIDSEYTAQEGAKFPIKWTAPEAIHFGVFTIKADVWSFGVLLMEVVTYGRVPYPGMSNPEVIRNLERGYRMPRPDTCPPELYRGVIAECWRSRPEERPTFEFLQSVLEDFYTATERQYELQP", "test": "Binding affinity to BLK (unknown origin) assessed as dissociation constant by KINOMEscan analysis"}, "[4]": {"biological_target": "Epidermal growth factor receptor (Homo sapiens, UniProt P00533)", "sequence (P00533 whole entry)": "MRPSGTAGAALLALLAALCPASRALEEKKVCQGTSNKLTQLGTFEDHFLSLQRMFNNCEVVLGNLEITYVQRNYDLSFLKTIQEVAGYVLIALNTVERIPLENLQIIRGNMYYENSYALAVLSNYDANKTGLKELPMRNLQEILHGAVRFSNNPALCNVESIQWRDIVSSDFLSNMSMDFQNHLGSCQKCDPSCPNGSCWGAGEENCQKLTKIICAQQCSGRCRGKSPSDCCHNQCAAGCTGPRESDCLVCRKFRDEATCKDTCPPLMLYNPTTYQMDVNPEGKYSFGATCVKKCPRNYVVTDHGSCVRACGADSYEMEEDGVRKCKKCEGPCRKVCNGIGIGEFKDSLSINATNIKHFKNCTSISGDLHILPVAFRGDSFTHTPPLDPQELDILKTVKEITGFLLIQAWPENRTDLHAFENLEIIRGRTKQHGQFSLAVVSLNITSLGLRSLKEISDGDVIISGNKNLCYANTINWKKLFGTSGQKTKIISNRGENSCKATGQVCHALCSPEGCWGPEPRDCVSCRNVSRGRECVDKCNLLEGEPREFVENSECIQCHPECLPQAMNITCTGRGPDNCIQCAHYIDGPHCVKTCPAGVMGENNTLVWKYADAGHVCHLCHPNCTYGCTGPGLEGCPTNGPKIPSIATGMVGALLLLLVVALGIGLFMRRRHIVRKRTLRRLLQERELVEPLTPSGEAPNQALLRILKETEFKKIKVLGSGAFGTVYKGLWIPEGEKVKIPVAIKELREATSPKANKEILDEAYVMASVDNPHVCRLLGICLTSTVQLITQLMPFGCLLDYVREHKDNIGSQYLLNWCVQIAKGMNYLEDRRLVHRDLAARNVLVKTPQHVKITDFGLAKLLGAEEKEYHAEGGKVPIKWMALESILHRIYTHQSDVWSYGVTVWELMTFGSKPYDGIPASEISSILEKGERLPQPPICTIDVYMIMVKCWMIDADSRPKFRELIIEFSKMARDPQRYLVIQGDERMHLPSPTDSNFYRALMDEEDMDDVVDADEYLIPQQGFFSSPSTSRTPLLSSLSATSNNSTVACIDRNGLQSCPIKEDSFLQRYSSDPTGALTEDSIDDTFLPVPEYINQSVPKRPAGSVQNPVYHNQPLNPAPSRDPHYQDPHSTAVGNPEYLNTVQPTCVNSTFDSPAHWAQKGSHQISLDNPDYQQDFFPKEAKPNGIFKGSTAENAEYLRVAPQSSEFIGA", "test": "Binding affinity to EGFR (unknown origin) assessed as dissociation constant by KINOMEscan analysis"}, "[5]": {"biological_target": "T1, Tyrosine-protein kinase ITK/TSK (Homo sapiens, UniProt Q08881)", "T1 sequence (Q08881 whole entry)": "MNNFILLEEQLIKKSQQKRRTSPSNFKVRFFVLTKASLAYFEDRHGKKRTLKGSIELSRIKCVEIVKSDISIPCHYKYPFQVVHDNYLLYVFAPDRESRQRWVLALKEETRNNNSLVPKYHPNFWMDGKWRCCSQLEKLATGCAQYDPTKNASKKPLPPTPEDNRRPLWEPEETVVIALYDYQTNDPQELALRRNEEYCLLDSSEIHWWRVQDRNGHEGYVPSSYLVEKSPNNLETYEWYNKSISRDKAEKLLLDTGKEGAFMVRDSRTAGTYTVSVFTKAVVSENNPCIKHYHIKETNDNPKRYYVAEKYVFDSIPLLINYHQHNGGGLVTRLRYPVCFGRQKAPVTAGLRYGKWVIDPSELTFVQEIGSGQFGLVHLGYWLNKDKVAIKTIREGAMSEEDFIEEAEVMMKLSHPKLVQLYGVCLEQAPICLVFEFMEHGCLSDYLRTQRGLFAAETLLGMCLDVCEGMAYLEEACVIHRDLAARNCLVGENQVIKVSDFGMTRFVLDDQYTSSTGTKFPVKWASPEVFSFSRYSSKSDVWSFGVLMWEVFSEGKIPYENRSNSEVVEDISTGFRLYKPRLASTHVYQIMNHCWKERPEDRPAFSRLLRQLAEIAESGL", "test": "Binding affinity to ITK (unknown origin) assessed as dissociation constant by KINOMEscan analysis"}, "[6]": {"biological_target": "T2, Tyrosine-protein kinase JAK3 (Homo sapiens, UniProt P52333)", "T2 sequence (P52333 whole entry)": "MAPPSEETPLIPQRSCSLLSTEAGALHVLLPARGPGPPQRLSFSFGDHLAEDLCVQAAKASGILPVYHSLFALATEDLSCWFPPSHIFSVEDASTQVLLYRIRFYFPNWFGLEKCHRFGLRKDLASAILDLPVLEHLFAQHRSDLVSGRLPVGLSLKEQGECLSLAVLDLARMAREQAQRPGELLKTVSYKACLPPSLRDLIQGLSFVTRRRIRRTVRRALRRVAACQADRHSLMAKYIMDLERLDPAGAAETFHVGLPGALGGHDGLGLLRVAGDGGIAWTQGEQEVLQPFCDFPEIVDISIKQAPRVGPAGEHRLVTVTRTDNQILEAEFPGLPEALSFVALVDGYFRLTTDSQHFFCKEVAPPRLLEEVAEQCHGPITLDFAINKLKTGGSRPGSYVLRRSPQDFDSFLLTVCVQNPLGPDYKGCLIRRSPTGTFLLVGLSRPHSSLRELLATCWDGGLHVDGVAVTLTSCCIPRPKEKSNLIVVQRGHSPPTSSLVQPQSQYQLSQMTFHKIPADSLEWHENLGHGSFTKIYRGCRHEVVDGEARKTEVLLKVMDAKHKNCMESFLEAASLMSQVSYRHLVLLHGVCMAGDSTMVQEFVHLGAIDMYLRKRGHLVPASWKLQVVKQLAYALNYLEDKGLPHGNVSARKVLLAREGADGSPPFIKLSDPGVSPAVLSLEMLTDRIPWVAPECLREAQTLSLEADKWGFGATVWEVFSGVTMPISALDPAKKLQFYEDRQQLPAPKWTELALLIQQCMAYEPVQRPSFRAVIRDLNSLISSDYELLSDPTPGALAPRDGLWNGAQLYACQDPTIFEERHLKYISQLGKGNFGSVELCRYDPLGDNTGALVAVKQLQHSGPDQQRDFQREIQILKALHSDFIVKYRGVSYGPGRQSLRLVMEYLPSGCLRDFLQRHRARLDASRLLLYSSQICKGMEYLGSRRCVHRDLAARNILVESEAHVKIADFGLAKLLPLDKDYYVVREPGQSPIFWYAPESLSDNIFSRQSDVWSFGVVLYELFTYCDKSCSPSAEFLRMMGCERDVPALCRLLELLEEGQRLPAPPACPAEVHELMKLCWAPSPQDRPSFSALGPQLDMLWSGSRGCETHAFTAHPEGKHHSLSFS", "test": "Binding affinity to JAK3 (unknown origin) assessed as dissociation constant by KINOMEscan analysis"}, "[7]": {"biological_target": "T3, Tyrosine-protein kinase Tec (Homo sapiens, UniProt P42680)", "T3 sequence (P42680 whole entry)": "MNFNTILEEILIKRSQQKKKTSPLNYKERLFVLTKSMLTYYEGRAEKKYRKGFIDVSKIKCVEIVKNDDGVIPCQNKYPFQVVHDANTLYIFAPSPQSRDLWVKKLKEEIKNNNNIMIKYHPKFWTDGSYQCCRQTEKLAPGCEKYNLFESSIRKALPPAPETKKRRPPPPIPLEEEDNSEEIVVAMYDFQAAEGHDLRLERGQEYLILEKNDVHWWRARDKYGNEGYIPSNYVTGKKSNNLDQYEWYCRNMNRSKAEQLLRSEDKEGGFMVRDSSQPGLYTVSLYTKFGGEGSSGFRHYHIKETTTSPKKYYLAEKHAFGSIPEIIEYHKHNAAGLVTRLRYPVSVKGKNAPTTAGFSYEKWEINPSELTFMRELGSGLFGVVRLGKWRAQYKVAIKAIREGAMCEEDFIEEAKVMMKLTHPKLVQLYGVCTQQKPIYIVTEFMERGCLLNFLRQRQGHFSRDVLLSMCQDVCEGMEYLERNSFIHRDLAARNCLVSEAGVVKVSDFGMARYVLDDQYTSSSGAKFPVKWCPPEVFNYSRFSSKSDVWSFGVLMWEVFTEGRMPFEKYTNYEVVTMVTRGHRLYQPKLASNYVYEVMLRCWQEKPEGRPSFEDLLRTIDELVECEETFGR", "test": "Binding affinity to TEC (unknown origin) assessed as dissociation constant by KINOMEscan analysis"}, "[8]": {"biological_target": "T4, Tyrosine-protein kinase TXK (Homo sapiens, UniProt P42681)", "T4 sequence (P42681 whole entry)": "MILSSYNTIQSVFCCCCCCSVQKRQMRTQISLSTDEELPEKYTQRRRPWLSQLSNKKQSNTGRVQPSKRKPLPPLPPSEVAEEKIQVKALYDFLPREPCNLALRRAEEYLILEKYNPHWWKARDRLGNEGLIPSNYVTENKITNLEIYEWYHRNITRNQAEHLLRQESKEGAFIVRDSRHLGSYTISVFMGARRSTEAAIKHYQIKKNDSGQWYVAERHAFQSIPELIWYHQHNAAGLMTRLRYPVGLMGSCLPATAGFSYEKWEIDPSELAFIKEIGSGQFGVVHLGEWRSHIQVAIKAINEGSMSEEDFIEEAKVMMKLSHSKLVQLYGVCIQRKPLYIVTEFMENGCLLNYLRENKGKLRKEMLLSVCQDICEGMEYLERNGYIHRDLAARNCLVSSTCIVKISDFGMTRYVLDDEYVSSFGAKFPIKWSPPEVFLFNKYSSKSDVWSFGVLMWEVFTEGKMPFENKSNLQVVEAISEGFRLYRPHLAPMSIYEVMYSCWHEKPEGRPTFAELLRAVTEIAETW", "test": "Binding affinity to TXK (unknown origin) assessed as dissociation constant by KINOMEscan analysis"}}}
{"smiles": "C[C@@H]1CN(C2COC2)CCN1c1ccc(Nc2cc(-c3ccnc(N4CCn5c(cc6c5CC(C)(C)C6)C4=O)c3CO)cn(C)c2=O)nc1", "values": [{"measurement": "Kd", "setting": "[1]", "result": 30, "unit": "µM"}, {"measurement": "Kd", "setting": "[2]", "result": 30, "unit": "µM"}, {"measurement": "Kd", "setting": "[3]", "result": 4.1, "unit": "µM"}, {"measurement": "Kd", "setting": "[4]", "result": 30, "unit": "µM"}, {"measurement": "Kd", "setting": "[5]", "result": 0.19, "unit": "µM"}, {"measurement": "Kd", "setting": "[6]", "result": 23, "unit": "µM"}, {"measurement": "Kd", "setting": "[7]", "result": 0.21, "unit": "µM"}, {"measurement": "Kd", "setting": "[8]", "result": 2, "unit": "µM"}]}
